# Data from patent publication US12194140B2, “Compositions for topical treatment of microbial infections” (Hennepin Life Sciences, priority 2012, dated 2025).
# How the values were obtained:
# Neisseria gonorrhoeae = test: Spectrum of antibacterial activity of GML; format: cell-based; details: optimal growth conditions; 1 strain tested
# Mycoplasma hominis = test: Spectrum of antibacterial activity of GML; format: cell-based; details: optimal growth conditions; 1 strain tested
# Salmonella minnesota = test: Spectrum of antibacterial activity of GML; format: cell-based; details: optimal growth conditions; 1 strain tested
# Gardnerella vaginalis [1] = test: Spectrum of antibacterial activity of GML; format: cell-based; details: optimal growth conditions; 2 strains tested
# Proteus vulgaris = test: Spectrum of antibacterial activity of GML; format: cell-based; details: optimal growth conditions; 1 strain tested
# Klebsiella pneunoniae = test: Spectrum of antibacterial activity of GML; format: cell-based; details: optimal growth conditions; 1 strain tested
# Streptococcus suis = test: Spectrum of antibacterial activity of GML; format: cell-based; details: optimal growth conditions; 1 strain tested
# Clostridium perfringens = format: cell-based; details: optimal growth conditions; 1 strain tested
# Streptococcus pyogenes = test: Spectrum of antibacterial activity of GML; format: cell-based; details: optimal growth conditions; 4 strains tested
# Burkholderia cenocepacia = test: Spectrum of antibacterial activity of GML; format: cell-based; details: optimal growth conditions; 1 strain tested
# E. coli (Watson strain) [2] = test: GML and EDTA on the growth of E. coli; format: cell-based; details: 24 hours; EDTA 0.05 M to 0.00005 M; GML 100 μg/mL
# Description: E. coli (Watson strain) was adjusted to I.2×10^7/mL in Todd Hewitt media. […] Cultures were incubated with shaking (200 RPM) for 24 hours, at which time samples were removed for plate counting. To further assess the combined effects of GML and EDTA, the experiment was carried out as above, and the relative effects on the growth of E. coli of EDTA alone or the combination of GML and EDTA were assessed in direct comparison to GML alone.
# S. aureus 128 (TSST-1) = format: cell-based
# [3] = system: Haemophilus influenzae Non-typable; test: Spectrum of antibacterial activity of GML; format: cell-based; details: optimal growth conditions; 2 strains tested
# [4] = system: Streptococcus pneumoniae Serotype III; test: Spectrum of antibacterial activity of GML; format: cell-based; details: optimal growth conditions; 2 strains tested
# Listeria monocytogenes = test: Spectrum of antibacterial activity of GML; format: cell-based; details: optimal growth conditions; 1 strain tested
# [5] = system: S. aureus strains MN8, MNWH, MW2; test: Biofilm formation in 96 well microtiter plates; format: cell-based
# Haemophilus influenzae = test: Effect of pH on GML activity; format: cell-based; details: 1 μg/mL GML
# Description: A similar experiment was carried out to assess the effect of GML on the growth of Haemophilus influenzae at various pHs. 1 μg/mL GML had no effect on the growth of H. influenzae at a pH of 7.0 (FIG. 13).
# Candida albicans = test: GML in vegetable oil, growth in Todd Hewitt broth (CFU/mL); format: cell-based; details: GML in olive, palm or corn oil (all 3); 18 hours, 37° C.
# H. influenzae biofilm = test: Treatment of previously formed biofilms; format: cell-based; details: 48 hour biofilm; 500 μg/mL GML for 60 minutes at 37° C.
# Description: Supernatants were removed and bactericidal activity was determined by measuring CFU/mL (FIG. 9, left; # significant reduction in mean absorbance at 595 nm compared to no GML control, p<0.01). Wells were then washed and stained with crystal violet as described above.
# Gardnerella vaginalis [6] = test: GML in vegetable oil, growth in Todd Hewitt broth (CFU/mL); format: cell-based; details: GML in olive, 18 hours, 37° C.
# S. aureus (strain MN8) = test: Effect of non-aqueous gel on antimicrobial activity of GML; format: cell-based; details: GML alone in Todd Hewitt broth; 24 hours
# S. aureus MN8 = test: Bactericidal activity of GML versus lauric acid; format: cell-based; details: 24 hours, 37° C.; bactericidal = at least 3 log reduction
# [7] = system: Bordetella bronchiseptica; test: Spectrum of antibacterial activity of GML; format: cell-based; details: optimal growth conditions; 1 strain tested
# [8] = system: Peptostreptococcus species; test: Spectrum of antibacterial activity of GML; format: cell-based; details: optimal growth conditions; 1 strain tested
# [9] = system: Staphylococcus aureus MNPE (methicillin sensitive) and MW2 (methicillin resistant); test: GML in vegetable oil, growth in Todd Hewitt broth (CFU/mL); format: cell-based; details: both strains; GML in olive, palm or corn oil (all 3); 18 hours, 37° C.
# oral aerobic bacteria = test: Decolonization of teeth and gum lines; format: in vivo, human; details: 5% GML gel on teeth and gum lines; thirty minutes after treatment
# Excerpt: Human volunteers were swabbed with a PBS-saturated swab across the teeth and gum lines on the left side of the mouth and tested for CFU/mL of total bacteria subsequently grown on blood agar plates. The same individuals were then swabbed with GML gel by swabbing the gel across the teeth and gum lines on the right side of the mouth. Enough gel was used to coat the entire surface area of the teeth and gum lines. Thirty minutes after treatment, the participants were swabbed with PBS-saturated swabs on the right side and total CFU/mL were determined. […] Bacterial counts on both sides of the teeth and gum lines were presumed to be approximately equal, and a pre-test swab confirmed that this was the case.
# Streptococcus agalactiae = test: GML in vegetable oil, growth in Todd Hewitt broth (CFU/mL); format: cell-based; details: GML in olive, palm or corn oil (all 3); 18 hours, 37° C.
# Group F Streptococcus = test: Spectrum of antibacterial activity of GML; format: cell-based; details: optimal growth conditions; 1 strain tested
# E. coli (Watson strain) [10] = test: Effect of pH on GML activity; format: cell-based; details: for bactericidal GML concentration: 24 hours
# Description: An experiment was conducted to determine the effect of GML in the presence of various pH levels on the growth of E. coli. E. coli (Watson strain) was grown in Todd Hewitt media and adjusted to […]. Using acetate buffer, the pH of the cultures was adjusted to 5.0, 6.0, or 7.0. […] Samples were removed for enumeration of CFU/mL at 24 hours.
# Pseudomonas aeruginosa = test: Spectrum of antibacterial activity of GML; format: cell-based; details: optimal growth conditions; 1 strain tested
# Enterobacter aerogenes = test: Spectrum of antibacterial activity of GML; format: cell-based; details: optimal growth conditions; 1 strain tested
# Group G Streptococcus = test: Spectrum of antibacterial activity of GML; format: cell-based; details: optimal growth conditions; 1 strain tested
# Bacteroides fragilis = test: Spectrum of antibacterial activity of GML; format: cell-based; details: optimal growth conditions; 2 strains tested
# Group C Streptococcus = test: Spectrum of antibacterial activity of GML; format: cell-based; details: optimal growth conditions; 1 strain tested
substance,measurement,setting,value
Glycerol monolaurate [GML],Average Bactericidal Concentration of GML,Neisseria gonorrhoeae,20 µg/mL
same,Average Bactericidal Concentration of GML,Mycoplasma hominis,1 µg/mL
same,Average Bactericidal Concentration of GML,Salmonella minnesota,Not Susceptible
same,Average Bactericidal Concentration of GML,Gardnerella vaginalis [1],10 µg/mL
same,Average Bactericidal Concentration of GML,Proteus vulgaris,Not Susceptible
same,Average Bactericidal Concentration of GML,Klebsiella pneunoniae,Not Susceptible
same,Average Bactericidal Concentration of GML,Streptococcus suis,50 µg/mL
same,Average Bactericidal Concentration of GML,Clostridium perfringens,1 µg/mL
same,Average Bactericidal Concentration of GML,Streptococcus pyogenes,30 µg/mL
same,Average Bactericidal Concentration of GML,Burkholderia cenocepacia,500 µg/mL
same,anti-bacterial activity on growth of E. coli (CFU/mL),E. coli (Watson strain) [2],did not exhibit any bactericidal activity
same,TSST-1 in tampon sacs (Western immunoblot),S. aureus 128 (TSST-1),not detected
same,Average Bactericidal Concentration of GML,[3],50 µg/mL
same,Average Bactericidal Concentration of GML,[4],10 µg/mL
same,Average Bactericidal Concentration of GML,Listeria monocytogenes,50 µg/mL
same,"fold lower GML concentration inhibiting biofilm formation (crystal violet, absorbance 595 nm) than necessary to inhibit bacterial growth",[5]; 24 or 48 hours,10 fold
same,GML concentration at which growth was completely inhibited (CFU/mL),"[5]; all three strains, 24 and 48 hours",500 µg/mL
same,effect on growth (CFU/mL),"Haemophilus influenzae; pH 6.0, 4, 8, and 24 hours",completely abrogated the growth
same,effect on growth (CFU/mL),Haemophilus influenzae; pH 7.0,no effect
same,GML concentration at which growth was inhibited,Candida albicans,100 µg/mL
same,bactericidal activity on previously formed biofilm (CFU/mL),H. influenzae biofilm,killed
same,biofilm material attached to the wells (crystal violet staining),H. influenzae biofilm,nearly completely removed biofilm material
same,GML concentration at which growth was completely or nearly completely inhibited,Gardnerella vaginalis [6]; palm or corn oil (all 3),≥ 20 µg/mL
same,GML concentration at which CFU/mL were reduced,Gardnerella vaginalis [6]; palm or corn oil (all three),≤ 10 µg/mL
same,GML concentration inhibiting growth (CFU/mL),S. aureus (strain MN8),≥ 100 µg/mL
same,fold lower bactericidal concentration than lauric acid,S. aureus MN8,200 fold
same,Average Bactericidal Concentration of GML,[7],1 µg/mL
same,Average Bactericidal Concentration of GML,[8],1 µg/mL
same,GML concentration at which growth was inhibited,[9],100 µg/mL
same,reduction in CFUs between pretreatment and post-treatment swabs,oral aerobic bacteria,> 5 log
same,GML concentration at which growth was completely or nearly completely inhibited,Streptococcus agalactiae,≥ 20 µg/mL
same,Average Bactericidal Concentration of GML,Group F Streptococcus,20 µg/mL
same,bactericidal GML concentration,E. coli (Watson strain) [10]; pH 5.0,0.1 µg/mL
same,bactericidal GML concentration,E. coli (Watson strain) [10]; pH 6.0,50 µg/mL
same,bactericidal GML concentration,E. coli (Watson strain) [10]; pH 7.0,> 5000 µg/mL
same,increase in susceptibility to GML with each unit drop in pH,E. coli (Watson strain) [10]; pH 7.0 to 5.0,500 times
same,Average Bactericidal Concentration of GML,Pseudomonas aeruginosa,Not Susceptible
same,Average Bactericidal Concentration of GML,Enterobacter aerogenes,Not Susceptible
same,Average Bactericidal Concentration of GML,Group G Streptococcus,50 µg/mL
same,Average Bactericidal Concentration of GML,Bacteroides fragilis,50 µg/mL
same,Average Bactericidal Concentration of GML,Group C Streptococcus,30 µg/mL
